The text below walks through data of patent US8288372B2, “Method for treating headache with loxapine” (Alexza Pharmaceuticals, Inc., priority 2002, dated 2012).

Structures are written as SMILES. Like-named read-outs stand apart in the source and are kept apart here. Marks after values point to notes of the source that are not given here. A value given as a limit tells only on which side of the number the result lay.

By Cmax is commonly meant the peak of the concentration-time curve.

The conditions of series [1]: cited from earlier work.
In series [2] the test system is animal model. Conditions: chronic administration of amoxapine alone; cited from earlier work.
For series [3], the system named is Male mice. As to the kind of experiment: Mouse writhing test (acetic acid 0.5% i.p.). Conditions: for Effect on the number of writhes induced by acetic acid: five doses i.p.; for Dose from which the number of writhes was significantly decreased: Mann Whitney U test vs vehicle. The method, then:
Male mice weighing 23-28 g were used in this test. Mice were injected with acetic acid (0.5% i.p.). This treatment induces a recognizable writhing response in control animals. The number of writhes is counted for 10 minutes beginning 5 minutes after injection of acetic acid. Ten mice were studied per group. The test was performed blind. Loxapine and amoxapine (dispersed in 0.2% hydroxypropylmethylcellulose, then dissolved in saline) were evaluated at five doses, administered i.p. 30 minutes before acetic acid, and compared with a vehicle control (0.2% hydroxypropylmethylcellulose in saline) group. Dosage rates for loxapine were 0.125, 0.25, 0.5, 1 and 2 mg/kg. Dosage rates for amoxapine were 1, 2, 4, 8 and 16 mg/kg. […] The data were analyzed by comparing the treated groups with the vehicle control using Mann Whitney U tests.

Series [4] relates to Beagle Dog. Conditions: in vivo.
For series [5], the system named is person with migraine headache. The series can be described thus: Clinical use of loxapine tablet for an acute migraine attack. Type of series: in vivo, human. The settings on record: 25 mg tablet by mouth. The method, then: A person in generally good health notes onset of moderate pain localizing to the right side of their head over approximately 10 minutes while at home. Over the next 10 minutes, the pain becomes more severe, characterized by throbbing. The person recognizes this as a migraine headache, and also knows that for their such headaches, when untreated, tend to persist for at least a full day with nausea accompanying the headache pain and with the pain so severe as to render sleeping difficult or impossible. The person turns down the lights in their living room to avoid the pain caused by bright light entering their eyes, and turns off the radio, because noise from the radio was worsening their headache pain. They take a 25 mg loxapine tablet by mouth with a glass of water. Over the next 15 minutes, the headache pain begins to […], and the person's stomach is mildly upset. […] Their stomach no longer bothers them. […] Light and sound are no longer bothersome. They eat a normal meal without stomach upset.

Series [6] concerns subjects with a history of moderate to severe migraine headache. The series can be described thus: Phase II clinical trial of loxapine for the treatment of acute migraine attacks. Type of series: in vivo, human. The source says:
The study methodology is a double-blind, randomized, placebo-controlled dose-ranging trial. Healthy male and female subjects 18 to 65 years of age, inclusive, with a history of moderate to severe migraine headache by self-report (migraine with or without aura) with average frequency of 1-6 attacks per month during the past 3 months are recruited to participate in the study. Those subjects meeting entry criteria are enrolled and randomized to receive one of the following treatments: placebo, loxapine rapid delivery system ˜1.25 mg, loxapine rapid delivery system ˜2.5 mg, loxapine rapid delivery system ˜5 mg, loxapine rapid delivery system ˜10 mg. Higher loxapine doses may also be tested if found safe in a Phase I clinical trial. The loxapine rapid delivery system is a means of delivering loxapine to a migraine patient such that maximum plasma drug concentrations are obtained within 1 hour, 30 minutes, 15 minutes, 10 minutes, 5 minutes, or even 2 minutes or less. The condensation aerosol delivery system described above with respect to a Phase I clinical trial is one such system. Other rapid delivery systems include various durations of intravenous infusions or injections.
Immediately prior to receiving the treatment to which the patient has been randomized, the patient rates their severity of headache and nausea on a 4-point scale (0—absent, 1—mild, 2—moderate, 3—severe) and photophobic and phonophobia on a 2-point scale (Does light make your headache worse? 0—No, 1—Yes; Does noise make your headache worse? O—No, 1—Yes). Alternatively, an 11-point visual-analogue scale (0—none to 10—maximally severe) or other appropriate scale can be used. Subjects are asked to repeat these ratings at timepoints of 15 and 30 minutes following treatment, and also at 1, 2, 4, 8, 12 and 24 hours post treatment. Subjects are further asked for their global assessment of treatment efficacy (1—very poor to 5—very good) at 120 minutes and 24 hours post treatment. Concomitant medications, if any, are also recorded.

Series [7] is described as follows: Toxicokinetic analysis of loxapine plasma concentration after aerosol inhalation. Type of series: in vivo, beagle dogs. The method, then:
On the first day of the repeat dose (5 day) portion of the study, plasma samples were collected for toxicokinetic analysis prior to dosing, 2 minutes after the onset of dosing, immediately after dosing, 20 minutes and 1, 3, 9 and 24 hours post dosing. Samples were stored at −80° C. until loxapine plasma concentration analysis. Loxapine plasma concentration can be measured using analytical methods well known in the art, such as LC/MS, LC/MS/MS, and/or GC/MS. […] The rate of rise in loxapine plasma concentration is found to average at least 70 ng/mL/minute at the 2 mg/kg dose level over the first 2 minutes of dosing, and 20 ng/mL/minute at the 2 mg/kg dose level over the first 10 minutes of dosing. The rate of rise in loxapine plasma concentration is found to average at least 7 ng/mL/minute at the 0.2 mg/kg dose level over the first 2 minutes of dosing, and 2 ng/mL/minute at the 0.2 mg/kg dose level over the first 10 minutes of dosing. Therapeutic plasma levels of approximately at least 0.5 ng/mL, 1 ng/mL, 2 ng/mL, 4 ng/mL, 8 ng/mL, or even 15 ng/mL are obtained within 10 minutes, 5 minutes, and even within 2 minutes at both dose levels.

The mark [8] stands for this setting: 1 mg/kg i.p. 30 minutes before acetic acid, first or second experiment.
[9] abbreviates: 2 mg/kg i.p. 30 minutes before acetic acid, first or second experiment.

As for `Clc1ccc2c(c1)C(N1CCNCC1)=Nc1ccccc1O2` [Amoxapine, 2-chloro-11(1-piperazinyl)dibenz(b,f) (1,4) oxazepine], the Cmax is about 30 ng/mL in series [1] (lowest used oral dose 50 mg (Jue et al. 1982)) and about 50 ng/mL in series [1] (oral 100 mg (Calvo et al. 1985)). Also, the “Tmax after oral administration” value in series [1] (oral 100 mg) is about 1.5 h. Moreover, the “Blood levels after repeated dosing” value in series [1] (repeated amoxapine dosing (Calvo et al. 1985)) is 30 to 300 ng/mL. Also, the “Latency of the tail-flick” value in series [2] was “no change”. Further, the “Reduction in acetic acid writhing, percentage of control vehicle pretreatment” value in series [3] (setting [8]) was −23% NS; in series [3] (setting [9]), −39% *; in series [3] (4 mg/kg i.p. 30 minutes before acetic acid, first or second experiment), −71% ***; in series [3] (8 mg/kg i.p. 30 minutes before acetic acid, first or second experiment), −93% ***; in series [3] (16 mg/kg i.p. 30 minutes before acetic acid), −100% ***. In addition, the “Effect on the number of writhes induced by acetic acid” value in series [3] is given as “dose-dependently decreased the number of writhes”. Besides, the “Dose from which a clear / marked effect on writhing was observed” value in series [3] (i.p.) is on record as at least 4 mg/kg. In series [3] (i.p.), the “Dose from which the number of writhes was significantly decreased” value was at least 2 mg/kg. Further, the “Dose from which sedation was observed” value in series [3] (male, mouse, in vivo, ip) is at least 2 mg/kg.

As to `CN1CCN(C2=Nc3ccccc3Oc3ccc(Cl)cc32)CC1` [Loxapine, 2-chloro-11(4-methyl-1-piperazinyl)dibenz(b,f) (1,4) oxazepine], the Food consumption result in series [4] is given as “roughly normal”. Also, the “Gross pathology findings at necropsy” value in series [4] is “No treatment related findings”. Further, the “Histopathological examination of gross lesions” value in series [4] is reported as “no treatment related findings”. Also, the “Histopathological examination of larynx, trachea, mainstem bronchi, lungs including bronchi” value in series [4] is “No treatment related abnormalities”. Besides, the “Signs of bronchoconstriction (wheezing, prolonged expiratory phase, cough)” value in series [4] is “no signs of bronchoconstriction”. The “Cmax for loxapine only” value in series [1] (oral dose of 25 mg, a different study) is 10 to 12 ng/mL. Besides, the “Tmax after oral administration” value in series [1] (oral, manufacturer studies (Lederle Laboratories)) was 2 to 3 h. The “Signs of headache after brief nap” value in series [5] was “without any signs of headache”. In addition, the Return of headache entry in series [5] (no further medication) is “does not return over the next 72 hours”. Moreover, the Headache pain entry in series [5] (over the 1 hour following the first 15 minutes) is reported as “diminishes slowly”. Besides, the “Therapeutic effect of the drug” value in series [6] (5 mg and 10 mg, rapid delivery system, within 1 hour) is given as “strong therapeutic effect”. The “Severity of headache in treated patients” value in series [6] (5 mg and 10 mg, at 1 hour, even 30 minutes, sometimes 15 minutes) is listed as “markedly lower than prior to treatment”. The “Headache relief versus placebo” value in series [6] (5 mg or 10 mg, at 1 hour, statistically significant at p<0.05 assuming large sample) is listed as “marked advantage”. The “Persistence of advantage versus placebo” value in series [6] (5 mg or 10 mg, unless placebo patients get rescue medication) was “persists at 2 hours, 4 hours, 8 hours, and even 24 hours”. The “Reduction in acetic acid writhing, percentage of control vehicle pretreatment” value is given as −57% ** in series [3] (0.125 mg/kg i.p. 30 minutes before acetic acid), −90% *** in series [3] (0.25 mg/kg i.p. 30 minutes before acetic acid), −100% *** in series [3] (setting [8]) and −99% *** in series [3] (setting [9]). Moreover, the “Effect on the number of writhes induced by acetic acid” value in series [3] is reported as “dose-dependently decreased the number of writhes”. The “Dose from which a clear / marked effect on writhing was observed” value in series [3] (i.p.) is on record as at least 0.25 mg/kg. In series [3] (i.p.), the “Dose from which the number of writhes was significantly decreased” value is on record as at least 0.125 mg/kg. In series [3] (i.p., mice), the “Dose from which sedation was observed” value is listed as at least 0.25 mg/kg. The “Average rate of rise in loxapine plasma concentration” value is “at least 7 ng/mL/minute” in series [7] (0.2 mg/kg, first 2 minutes of dosing); at least 2 ng/mL/min in series [7] (0.2 mg/kg, first 10 minutes of dosing); “at least 70 ng/mL/minute” in series [7] (2 mg/kg, first 2 minutes of dosing); at least 20 ng/mL/min in series [7] (2 mg/kg, first 10 minutes of dosing). In addition, the “Time to peak plasma concentration after end of drug inhalation” value in series [7] (aerosol inhalation, first day of repeat dose) is at most 2 min.
